Reference: patent US7993660B2, “Method of increasing immunological effect” (IRx Therapeutics, Inc., priority 2007, dated 2011)
Where a SMILES comes first, the peptide text is derived from it. The star is where a group is joined. Cbz = O=C(OCc1ccccc1)*; CH2F = FC*

Legend:
caspase-3 and caspase-7 = assay: Caspase-3/-7 activation (caspase 3/7-FAM flow cytometry, Western immunoblot) in CD8+ Jurkat cells; assay type: cell-based, human; conditions: IRX-2 1:3 24 hours pre-treatment; zVAD 20 μM; ZB4 10 μg/mL; MV 10 μg 3 hours
Procedure: To determine total or phosphorylated forms of Akt, Bcl-2, CD3ζ, caspase-3, JAK3, STAT5, FLIP, and Mcl-1, Jurkat CD8+ cells or purified activated CD8+ or CD4+ T-cells were co-incubated with MV at the indicated concentration and/or with IRX-2 (1:3 final dilution) for the indicated period of time at 37° C. The cells were then washed, centrifuged at 4° C. and lysed in equal volumes of ice-cold lysis-buffer (50 mM Tris-HCL pH 7.5, 150 mM NaCl, 0.5% Nonidet P-40) and protease inhibitor cocktail (Pierce Chemical Co., Rockford, Ill.). After lysis, the homogenates were clarified by centrifugation. The supernatants were isolated, and boiled for 5 minutes in 5× Laemmli sample buffer. […]
Total cellular Caspase activity was tested by intracellular staining of activated caspases using a pan caspase inhibitor, CASPACE FITC-VAD-FMK In Situ Marker (Promega, Madison, Wis.). […] Then cells were stained for cell surface receptors, fixed with 1% paraformaldehyde and analyzed by flow cytometry. The specific activation of caspase-3 and caspase-7 was measured using the VYBRANT FAM caspase-3 and -7 Assay Kit from Invitrogen (Carlsbad, Calif.) according to the manufacturers' instructions. […] The cells were analyzed by flow cytometry with the fluorescein measured on the FL1 channel. […]

CD8+ Jurkat cells [1] = assay: Loss of mitochondrial membrane potential (JC-1) in CD8+ Jurkat cells; assay type: cell-based, human; conditions: IRX-2 1:3 24 hours pre-treatment, MV 10 μg 24 hours
Procedure: The loss of mitochondrial membrane potential (MMP) as a hallmark of apoptosis was measured using the MITOPROBE JC-1 Assay Kit from Invitrogen (Carlsbad, Calif.). The cationic dye JC-1 (5,5′, 6,6′-tetrachloro-1,1′, 3,3′-tetraethylbenzimidazolylcarbocyanine iodide) exists in healthy cells as a green monomer in the cytosol and also accumulates as red aggregates in the mitochondria. In apoptotic and necrotic cells, JC-1 remains only in the cytoplasm due to mitochondrial depolarization, which can be detected by flow cytometry as a decrease in the red/green fluorescence intensity ratio. CD8+ Jurkat cells or activated T lymphocytes were incubated in PBS containing 2 μM of JC-1 for 30 minutes at 37° C., 5% CO2. […] The cells were analyzed using a flow cytometer immediately after staining.
CD8+ Jurkat cells were analyzed by flow cytometry for a decrease in red fluorescence of the cationic dye JC-1, indicating a loss of MMP. Percentage of JC-1 red-negative cells were determined in cultures of CD8+ Jurkat cells after no treatment, 24 hours treatment with MV (10 μg) alone (no IRX) or pre-treated for 24 hours with IRX-2 (1:3 dilution) or MV in combination with the apoptosis-inhibitor Z-VAD-FMK (pan-caspase inhibitor; conc) or ZB4 (anti-Fas neutralizing mAb, conc/dose). […]

[2] = system: activated peripheral blood CD8+ T-lymphocytes; assay: Caspase activation (FITC-VAD-FMK staining, flow cytometry) in activated primary CD8+ T cells; assay type: cell-based, human; conditions: for inhibition of PCI-13/FasL-MV-induced apoptosis (caspase-VAD-FITC binding): CD8+, IRX-2 1:3 or IL-7, IL-15 100 ng/mL 24 hours, MV 15 μg 24 hours; for mean % of FITC-VAD-FMK+ cells ± SD: CD8+ cells, 24 hours pre-incubation (IRX-2 1:3, IL-2 100 IU/mL, IL-7/IL-15 10 ng/mL)
Source text: (§1) The head and neck squamous cell carcinoma (H&NSCC) cell line […] was established in Applicants' laboratory and maintained as previously described. It was retrovirally transfected with the human FasL gene obtained from Dr. S. Nagata (Osaka Biosciences Institute, Osaka, Japan) as previously reported. Supernatants of transfected PCI-13-cells (PCI-13-FasL), which contained both sFasL and the 42 kDa membranous form of FasL, were used as a source of tumor-derived microvesicles (MV). Jurkat cells were obtained from American Tissue Culture Collection (ATCC, Manassas, Va.) and were transfected with CD8. The CD8+ Jurkat cells were cultured in RPMI 1640 medium supplemented with 10% (v/v) fetal bovine serum (FBS), L-glutamine and antibiotics. Human T lymphocytes were isolated from peripheral blood mononuclear cells (PBMC) obtained from consented normal donors. PBMC were isolated by Ficoll-Hypaque density gradient centrifugation (GE Healthcare Bio-Sciences Corp., Piscataway, N.J.), washed and plated for 1 hour at 37° C. in culture flasks (T162) in an atmosphere of 5% CO2 to remove CD14+ monocytes. The non-adherent T-lymphocyte fraction was collected and immediately used for experiments or cryopreserved. CD8+ T cells or CD4+ T cells were purified by positive selection using CD8 MicroBeads or CD4 MicroBeads, respectively (Miltenyi Biotec, Auburn, Calif.) using the AutoMACS system according to the manufacturer's instructions. Purified CD8+ or CD4+ T cells were then cultured for 2-3 days in AIM V medium supplemented with 10% FBS in the presence of beads coated with anti-CD3 and anti-CD28 antibodies (T Cell Activation/Expansion Kit, Miltenyi Biotec). All cells used for the above described experiments were in the log phase of growth.
(§2) CD8+ Jurkat cells or activated normal T lymphocytes were plated at 0.3×10^6 cells per well in a 96-well plate and pre-treated or not with IRX-2 or with recombinant human cytokines at a final concentration of 10 ng/mL or 100 IU/mL for 24 hours (unless otherwise noted). MV (10 μg protein per 0.3×10^6 cells) were then added for 3-24 hours. In some experiments, cells were first co-incubated with MV for 3-24 hours, then washed and treated further with IRX-2 or cytokines or treated for the indicated time period with MV and IRX-2 added simultaneously. In selected blocking experiments, anti-Fas neutralizing monoclonal antibody, ZB-4, the pan-caspase inhibitor, Z-VAD-FMK, or the specific Akt-inhibitor or specific inhibitors for caspase-3, caspase-8 and caspase-9 were added at the indicated concentrations prior to MV co-incubation.
(§3) Four color flow cytometry was performed using a […] (Beckman Coulter) equipped with Expo32 software (Beckman Coulter). Lymphocytes were gated based on morphology, and debris, MV as well as monocytes and granulocytes were excluded, collecting data on at least 10^5 cells. For the analysis of activated primary T lymphocytes, gates were restricted to the CD3^+CD8^+ or CD3^+CD4^+ T-cell subsets. Data was analyzed using Coulter EXPO 32vl.2 analysis software.
(§4) Total cellular Caspase activity was tested by intracellular staining of activated caspases using a pan caspase inhibitor, CASPACE FITC-VAD-FMK In Situ Marker (Promega, Madison, Wis.). Cells were resuspended in PBS and FITC-VAD-FMK was added at a final concentration of 5 μM. The cells were incubated for 20 minutes at 37° C., 5% CO2 and washed with PBS. Then cells were stained for cell surface receptors, fixed with 1% paraformaldehyde and analyzed by flow cytometry. The specific activation of caspase-3 and caspase-7 was measured using the VYBRANT FAM caspase-3 and -7 Assay Kit from Invitrogen (Carlsbad, Calif.) according to the manufacturers' instructions. Briefly, cells were resuspended in PBS and stained with a 150× dilution of the carboxyfluorescein (FAM)-labeled FMK-caspase inhibitor for 60 minutes at 37° C., 5% CO2. Then the cells were washed in wash buffer and fixed with 1% paraformaldehyde.

[3] = system: activated peripheral blood CD4+ T-lymphocytes; assay: Caspase activation (FITC-VAD-FMK staining, flow cytometry) in activated primary CD4+ T cells; assay type: cell-based, human; conditions: for inhibition of PCI-13/FasL-MV-induced apoptosis (caspase-VAD-FITC binding): CD4+, IRX-2 1:3 or IL-7, IL-15 100 ng/mL 24 hours, MV 15 μg 24 hours; for mean % of FITC-VAD-FMK+ cells ± SD: CD4+ cells, 24 hours pre-incubation (IRX-2 1:3, IL-2 100 IU/mL, IL-7/IL-15 10 ng/mL)
Source text: as §1, §2, §3, §4

CD8+ Jurkat cells [4] = assay type: cell-based; conditions: 24 hours pre-treatment (IRX-2 1:3; IL-7, IL-15 10 ng/mL), PCI-13/FasL-MV 15 μg 3 hours; no IRX-2 lane 50%
Procedure: as §2
Total cellular Caspase activity was tested by intracellular staining of activated caspases using a pan caspase inhibitor, CASPACE FITC-VAD-FMK In Situ Marker (Promega, Madison, Wis.). […] Then cells were stained for cell surface receptors, fixed with 1% paraformaldehyde and analyzed by flow cytometry. The specific activation of caspase-3 and caspase-7 was measured using the VYBRANT FAM caspase-3 and -7 Assay Kit from Invitrogen (Carlsbad, Calif.) according to the manufacturers' instructions. […]

[5] = Table 2A MV-induced apoptosis, then 10 μg MV 24 hours
[6] = Table 2B CH-11 Ab-induced apoptosis, then 400 ng/mL CH-11 Ab 24 hours

Compound	MV-induced induction of caspase-3 and -7 activity (caspase-3/-7-FAM MFI) (caspase-3 and caspase-7)	MV-induced loss of mitochondrial membrane potential (JC-1 red-negative cells) (CD8+ Jurkat cells [1])	inhibition of PCI-13/FasL-MV-induced apoptosis (caspase-VAD-FITC binding) [2]	mean % of FITC-VAD-FMK+ cells ± SD [2, 5]	mean % of FITC-VAD-FMK+ cells ± SD [2, 6]	inhibition of PCI-13/FasL-MV-induced apoptosis (caspase-VAD-FITC binding) [3]	mean % of FITC-VAD-FMK+ cells ± SD [3, 5]	mean % of FITC-VAD-FMK+ cells ± SD [3, 6]	apoptotic cells (activated caspase-VAD-FITC binding CD8+ Jurkat cells) (CD8+ Jurkat cells [4])
COC(=O)C[C@H](NC(=O)[C@H](C)NC(=O)[C@@H](NC(=O)OCc1ccccc1)C(C)C)C(=O)CF [zVAD] (Cbz-Val-Ala-Asp(OMe)-CH2F)	completely prevented	block was comparable to that provided by the two inhibitors							
IL-7: human recombinant survival cytokine, purchased from Peprotech			similarly effective compared to IRX-2	49.5 ± 3.5%	37.7 ± 1.4%	similarly effective compared to IRX-2	34.5 ± 1.9%	31.8 ± 10.6%	neither IL-7 nor IL-15 alone was able to reduce the level of apoptosis below the control MV-induced level
IL-15: human recombinant survival cytokine, purchased from Peprotech			similarly effective compared to IRX-2	16.8 ± 6.2%	28.8 ± 3.1%	similarly effective compared to IRX-2	16.7 ± 2.1%	21.1 ± 5.3%	neither IL-7 nor IL-15 alone was able to reduce the level of apoptosis below the control MV-induced level
